For assay [1], the system named is NCI-H929 cells. Nature of the assay: Anti proliferative activity in NCI-H929 cell line by Cell Titer Glo assay. Format: cell-based. To be noted: Homo sapiens, 72 h, 3 days compound incubation, CellTiter Glo, read-out: Anti-proliferative activity IC50 group (NCI-H929 cells). The essentials: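 Cells seeded in complete RPMI-1640 and exposed next day to compounds in triplicate (DMSO ≤0.3% final) for 3 days (H929) or 8 days (H838). Viability by CellTiter-Glo ATP luminescence; % inhibition relative to DMSO control, IC50 from dose-response fit.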
A general note: ATP-based viability assays read luminescence as a measure of living cells.

The subject of assay [2] is NCI-H838 cells. Nature of the assay: Anti proliferative activity in NCI-H838 cell line by Cell Titer Glo assay. The format is cell-based. The conditions noted are these: Homo sapiens, 192 h, 8 days compound incubation, CellTiter Glo, read-out: Anti-proliferative activity IC50 group (NCI-H838 cells). The protocol:
Determination of Anti Proliferative Activity of Compounds in NCI-H929 and NCI-H838 Cell Lines by Cell Titer Glo® (promega) assay:
NCI-H929 (ATCC CRL-9068) or NCI-H838 (ATCC CRL-5844) cells were seeded in 96 well plate flat black clear bottom plates (Corning, Cat. No 3904) using complete RPMI-1640 media. Next day, compounds listed in the present invention were added to cells from 10 mM stocks made in DMSO (Sigma Cat no. D2650). Each concentration of compound was tested in triplicate with DMSO concentration at a final percentage not exceeding 0.3 in the cells. After the compound incubation (3 days for H929 and 8 days for H838) assay was terminated using 50 μl of CellTiter Glo® reagent (Promega, Cat. no G7572). CellTiter Glo® Luminescent reagent determines the number of viable cells based on quantitation of ATP present which is an indicator of cell number and metabolic activity. Luminescence readings were taken in Victor-3 instrument. Percent inhibition of proliferation was calculated using formula, % inhibition=100−(luminescence value of test/luminescence value of DMSO control)*100. DMSO control (0%)=Cells in complete media with DMSO; blank=Media alone containing DMSO. IC50 was calculated using graph pad prism software.
Herein group “A” refers to IC50 value lower than 1 μM, “B” refers to IC50 value between 1-10 μM (both inclusive) and “C” refers to IC50 value higher than 10 μM or less than 50% activity at 10 μM.

Assay [3] deals with T1, SMARCA2 (Homo sapiens, UniProt P51531). Description: SMARCA2 degradation in NCI-H838 cells by Western blot. Format: cell-based. Also noted: endogenous in cells; host or cells: NCI-H838 (ATCC CRL-5844). The conditions noted are these: 16 hours. As to the method:
Determination of SMARCA2 Degradation in NCI-1H838 Cells by Western Blot:
NCI-1H838 (ATCC CRL-5844) was plated in 6 well plates using complete RPMI-1640 media. Next day, compounds of present invention were added to cells from 10 mM stocks made in DMSO (Sigma Cat no. D2650). Each concentration of compound was tested with DMSO concentration not exceeding a final percentage of 0.3 in the cells. Cells were incubated with the compound for 16 hours followed by harvesting with 1× RIPA lysis buffer (Thermo Fischer, catalogue number #89900) containing protease inhibitor cocktail (Sigma catalogue number #P-8340). Equal amount of protein was loaded on SIDS PAGE gel for electrophoresis. Western blot was carried out for detection of SMARCA2 with antibody (Cell signaling technologies, catalogue number #11966). Beta Actin (Santa Cruz, catalogue number #69879) was used as loading control. Percentage of SMARCA2 degradation was calculated using formula % degradation=100−(normalized band intensity in treated sample/normalized band intensity in DMSO sample)*100”.
Selected compounds of the present invention were screened in the above mentioned assay procedures for determination of % SMARCA2 degradation at 100 nM and the results are summarized in below table 31.
(Immunoblotting shows a protein as a band on a membrane.)

Assay [4] addresses T2, SMARCA4 (Homo sapiens, UniProt P51532).
T2 construct: endogenous in cells; host or cells: NCI-H929 (ATCC CRL-9068)
Description: SMARCA4 degradation in H929 cells by Western blot. The format is cell-based. To be noted: 16 hours; for SMARCA4 percent degradation at 0.1 µM: NCI-H929, 100 nM. As to the method: (§1) Determination of SMARCA2 and SMARCA4 Degradation in H929 Cells by Western Blot:
(§2) NCI-H929 (ATCC CRL-9068) was plated in 6 well plates using complete RPMI-1640 media. Next day, compounds of present invention were added to cells from 10 mM stocks made in DMSO (Sigma Cat no. D2650). Each concentration of compound was tested with DMSO not exceeding final percentage of 0.3 in the cells. Cells were incubated with the compound for 16 hours followed by harvesting with 1× RIPA lysis buffer (Thermo Fischer, catalogue number #89900) containing protease inhibitor cocktail (Sigma catalogue number #P-8340). Equal amount of protein was loaded on SDS PAGE gel for electrophoresis. Western blot was carried out for detection of either SMARCA2 (Cell signaling technologies, catalogue number #11966) or SMARCA4 antibody (Cell signaling technologies, catalogue number #49360). Beta Actin (Santa Cruz, catalogue number #69879) was used as loading control. Percentage of SMARCA2 or SMARCA4 degradation was calculated using formula % Degradation=100−(normalized band intensity in treated sample/normalized band intensity in DMSO sample)*100.
(§3) Selected compounds of the present invention were screened in the above mentioned assay procedures for determination of % SMARCA2 and SMARCA4 degradation 100 nM and the results are summarized in below table 30.

Assay [5] concerns the target T1, SMARCA2. Description: SMARCA2 degradation in H929 cells by Western blot. The format is cell-based. Also noted: endogenous in cells. The conditions noted are these: 16 hours. The protocol: as §1, §2, §3
For assay [6], the system named is SMARCA4-deficient cancer cell lines. The conditions noted are these: SMARCA2/4 bromodomain inhibitor; Cancer Res. 2015; cited from earlier work.

The structures appear in SMILES notation.

T1 sequence (P51531 whole entry): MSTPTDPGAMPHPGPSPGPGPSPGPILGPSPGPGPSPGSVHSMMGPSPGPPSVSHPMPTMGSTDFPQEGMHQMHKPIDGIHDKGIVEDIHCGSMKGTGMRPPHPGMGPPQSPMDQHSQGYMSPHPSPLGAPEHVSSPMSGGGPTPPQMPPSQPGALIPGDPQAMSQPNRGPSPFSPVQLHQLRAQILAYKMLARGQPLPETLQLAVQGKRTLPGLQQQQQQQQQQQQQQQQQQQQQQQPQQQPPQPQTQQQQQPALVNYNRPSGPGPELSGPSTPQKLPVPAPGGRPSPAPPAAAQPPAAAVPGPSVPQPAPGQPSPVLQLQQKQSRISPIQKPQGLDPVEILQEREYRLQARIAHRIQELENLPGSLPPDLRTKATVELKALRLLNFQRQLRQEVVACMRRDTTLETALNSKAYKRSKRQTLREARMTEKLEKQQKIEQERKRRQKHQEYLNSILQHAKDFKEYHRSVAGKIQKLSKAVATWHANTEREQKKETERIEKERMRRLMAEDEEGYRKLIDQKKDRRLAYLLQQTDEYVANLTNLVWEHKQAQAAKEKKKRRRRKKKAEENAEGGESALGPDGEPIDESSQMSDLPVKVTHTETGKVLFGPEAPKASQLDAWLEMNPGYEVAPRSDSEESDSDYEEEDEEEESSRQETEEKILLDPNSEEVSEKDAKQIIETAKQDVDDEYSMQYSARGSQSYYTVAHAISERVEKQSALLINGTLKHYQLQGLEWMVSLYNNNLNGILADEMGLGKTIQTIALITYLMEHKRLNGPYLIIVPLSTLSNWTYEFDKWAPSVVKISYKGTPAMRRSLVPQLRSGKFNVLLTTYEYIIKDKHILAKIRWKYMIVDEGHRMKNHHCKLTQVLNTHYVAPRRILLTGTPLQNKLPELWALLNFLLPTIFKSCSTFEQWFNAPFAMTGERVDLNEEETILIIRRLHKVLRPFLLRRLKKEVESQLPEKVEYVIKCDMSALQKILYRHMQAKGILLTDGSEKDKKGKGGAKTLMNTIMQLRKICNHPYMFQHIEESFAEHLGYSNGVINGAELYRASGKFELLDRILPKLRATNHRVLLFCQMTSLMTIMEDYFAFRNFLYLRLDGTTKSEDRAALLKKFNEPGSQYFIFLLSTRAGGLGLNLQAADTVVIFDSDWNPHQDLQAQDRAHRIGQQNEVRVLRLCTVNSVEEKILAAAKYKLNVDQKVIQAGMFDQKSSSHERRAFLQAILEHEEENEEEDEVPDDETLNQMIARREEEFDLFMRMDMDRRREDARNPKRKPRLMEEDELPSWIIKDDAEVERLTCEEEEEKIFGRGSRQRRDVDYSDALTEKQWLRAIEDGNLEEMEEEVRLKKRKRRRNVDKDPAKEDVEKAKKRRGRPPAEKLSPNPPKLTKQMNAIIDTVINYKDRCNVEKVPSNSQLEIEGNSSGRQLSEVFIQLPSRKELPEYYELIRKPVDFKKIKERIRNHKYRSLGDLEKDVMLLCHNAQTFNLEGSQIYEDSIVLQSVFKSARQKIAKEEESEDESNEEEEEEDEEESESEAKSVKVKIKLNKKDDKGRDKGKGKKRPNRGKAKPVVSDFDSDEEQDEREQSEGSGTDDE
T2 sequence (P51532 whole entry): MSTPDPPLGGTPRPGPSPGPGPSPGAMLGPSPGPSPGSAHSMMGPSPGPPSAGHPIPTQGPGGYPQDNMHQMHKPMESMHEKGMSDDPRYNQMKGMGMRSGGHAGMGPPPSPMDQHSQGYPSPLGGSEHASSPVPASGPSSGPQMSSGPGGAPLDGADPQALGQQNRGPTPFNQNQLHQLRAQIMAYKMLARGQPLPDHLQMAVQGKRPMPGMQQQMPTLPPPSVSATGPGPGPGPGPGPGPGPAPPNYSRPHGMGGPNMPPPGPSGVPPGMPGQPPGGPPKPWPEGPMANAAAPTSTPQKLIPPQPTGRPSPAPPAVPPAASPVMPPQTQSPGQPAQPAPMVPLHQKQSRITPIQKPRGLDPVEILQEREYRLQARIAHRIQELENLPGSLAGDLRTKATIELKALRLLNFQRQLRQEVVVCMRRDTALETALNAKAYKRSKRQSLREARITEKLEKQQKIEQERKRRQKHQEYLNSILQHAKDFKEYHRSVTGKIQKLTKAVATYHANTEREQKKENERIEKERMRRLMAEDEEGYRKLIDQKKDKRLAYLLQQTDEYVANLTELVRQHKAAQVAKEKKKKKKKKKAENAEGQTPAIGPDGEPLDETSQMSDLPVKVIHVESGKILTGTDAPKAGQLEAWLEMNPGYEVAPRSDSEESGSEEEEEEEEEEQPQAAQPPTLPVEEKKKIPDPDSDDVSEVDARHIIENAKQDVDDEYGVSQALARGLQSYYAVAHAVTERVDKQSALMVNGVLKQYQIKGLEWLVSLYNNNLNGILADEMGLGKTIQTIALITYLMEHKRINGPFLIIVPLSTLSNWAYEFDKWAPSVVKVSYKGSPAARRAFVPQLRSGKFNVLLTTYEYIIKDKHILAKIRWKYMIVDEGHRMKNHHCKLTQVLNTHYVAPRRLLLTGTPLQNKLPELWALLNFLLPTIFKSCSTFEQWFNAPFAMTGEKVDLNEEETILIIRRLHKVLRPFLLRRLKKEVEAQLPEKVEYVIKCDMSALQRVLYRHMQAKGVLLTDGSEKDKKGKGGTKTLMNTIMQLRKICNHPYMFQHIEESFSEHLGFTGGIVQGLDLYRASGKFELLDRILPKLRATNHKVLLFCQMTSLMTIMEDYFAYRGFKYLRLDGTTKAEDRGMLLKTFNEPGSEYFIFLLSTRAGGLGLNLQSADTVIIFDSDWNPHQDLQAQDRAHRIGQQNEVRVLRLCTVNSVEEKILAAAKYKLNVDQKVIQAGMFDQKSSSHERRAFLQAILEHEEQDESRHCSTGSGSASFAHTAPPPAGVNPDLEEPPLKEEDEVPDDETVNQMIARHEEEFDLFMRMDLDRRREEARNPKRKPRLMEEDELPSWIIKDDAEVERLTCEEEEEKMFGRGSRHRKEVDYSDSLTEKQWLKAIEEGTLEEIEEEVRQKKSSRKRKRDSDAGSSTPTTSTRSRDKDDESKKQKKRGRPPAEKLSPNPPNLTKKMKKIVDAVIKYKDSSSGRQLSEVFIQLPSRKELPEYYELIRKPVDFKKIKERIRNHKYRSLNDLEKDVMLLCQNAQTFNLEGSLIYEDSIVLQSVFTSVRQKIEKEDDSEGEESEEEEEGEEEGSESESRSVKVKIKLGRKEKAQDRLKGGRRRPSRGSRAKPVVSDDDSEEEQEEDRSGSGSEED

As to `Cc1ncsc1-c1ccc([C@H](C)NC(=O)[C@@H]2C[C@@H](O)CN2C(=O)[C@@H](NC(=O)CN2CC=C(c3cc(-c4ccccc4O)nnc3N)CC2)C(C)(C)C)cc1` [Compound 82], the IC50 in assay [1] and in assay [2] was less than 1000 nM each time. In addition, the “SMARCA2 @ 100 nM (% SMARCA2 degradation)” value in assay [3] is 61%.

Turning to `Cc1ncsc1-c1ccc([C@H](C)NC(=O)[C@@H]2C[C@@H](O)CN2C(=O)[C@@H](NC(=O)CN2CCN(c3cc(-c4cccc(F)c4O)nnc3N)CC2)C(C)(C)C)cc1` [Compound 90], the IC50 in assay [1] and in assay [2] was less than 1000 nM each time. In assay [4], this molecule had an SMARCA4 percent degradation at 0.1 µM of 101%. Further, in assay [5], the “SMARCA2 Percent degradation @ 100 nM” value is given as 100%. Besides, in assay [3], the “SMARCA2 @ 100 nM (% SMARCA2 degradation)” value came to 85%.

As to `Cc1ncsc1-c1ccc([C@H](C)NC(=O)[C@@H]2C[C@@H](O)CN2C(=O)[C@@H](NC(=O)CC2CCN(c3cc(-c4ccccc4O)nnc3N)CC2)C(C)(C)C)cc1` [Compound 51, (2S,4R)-1-((S)-2-(2-(1-(3-amino-6-(2-hydroxyphenyl)pyridazin-4-yl)piperidin-4-yl)acetamido)-3,3-dimethylbutanoyl)-4-hydroxy-N—((S)-1-(4-(4-methylthiazol-5-yl)phenyl)ethyl)pyrrolidine-2-carboxamide], the IC50 in assay [1] and in assay [2] was less than 1000 nM each time. In assay [4], this molecule returned an SMARCA4 percent degradation at 0.1 µM of 99%. Moreover, the “SMARCA2 @ 100 nM (% SMARCA2 degradation)” value in assay [3] is given as 99%.

Consider `Cc1ncsc1-c1ccc([C@H](C)NC(=O)[C@@H]2C[C@@H](O)CN2C(=O)[C@@H](NC(=O)CC2(O)CCN(c3cc(-c4ccccc4O)nnc3N)CC2)C(C)(C)C)cc1` [Compound 55, (2S,4R)-1-((S)-2-(2-(1-(3-amino-6-(2-hydroxyphenyl)pyridazin-4-yl)-4-hydroxypiperidin-4-yl)acetamido)-3,3-dimethylbutanoyl)-4-hydroxy-N—((S)-1-(4-(4-methylthiazol-5-yl)phenyl)ethyl)pyrrolidine-2-carboxamide], for which the IC50 in assay [1] and in assay [2] was less than 1000 nM each time.

Consider `Cc1ncsc1-c1ccc([C@H](C)NC(=O)[C@@H]2C[C@@H](O)CN2C(=O)[C@@H](NC(=O)C=C2CCN(c3cc(-c4ccccc4O)nnc3N)CC2)C(C)(C)C)cc1` [Compound 103], for which, in assay [2], the IC50 is less than 1000 nM. The “SMARCA2 @ 100 nM (% SMARCA2 degradation)” value in assay [3] stood at 64%.

Turning to `Cc1cccc(-c2cc(N3CCN(CC(=O)N[C@H](C(=O)N4C[C@H](O)C[C@H]4C(=O)N[C@@H](C)c4ccc(-c5scnc5C)cc4)C(C)(C)C)CC3)c(N)nn2)c1O` [Compound 91], in assay [2], the IC50 is less than 1000 nM. Moreover, in assay [3], the “SMARCA2 @ 100 nM (% SMARCA2 degradation)” value is 82%.

In the case of `Cc1ncsc1-c1ccc([C@H](C)NC(=O)[C@@H]2C[C@@H](O)CN2C(=O)[C@@H](NC(=O)CN2CCN(c3cc(-c4c(O)ccc(F)c4F)nnc3N)CC2)C(C)(C)C)cc1` [Compound 96], the IC50 in assay [2] was less than 1000 nM. Besides, the “SMARCA2 @ 100 nM (% SMARCA2 degradation)” value in assay [3] is given as 76%.

On to `Cc1ncsc1-c1ccc([C@H](C)NC(=O)[C@@H]2C[C@@H](O)CN2C(=O)[C@@H](NC(=O)CN2CCC(c3cc(-c4ccccc4O)nnc3N)CC2)C(C)(C)C)cc1` [Compound 81], for which the IC50 in assay [1] and in assay [2] was less than 1000 nM in each case. For the same molecule, the “SMARCA2 @ 100 nM (% SMARCA2 degradation)” value in assay [3] came to 34%.

`Cc1ncsc1-c1ccc([C@H](C)NC(=O)[C@@H]2C[C@@H](O)CN2C(=O)[C@@H](NC(=O)CN2C3CCC2CN(c2cc(-c4ccccc4O)nnc2N)C3)C(C)(C)C)cc1` [Compound 61, (2S,4R)-1-((2S)-2-(2-(3-(3-amino-6-(2-hydroxyphenyl)pyridazin-4-yl)-3,8-diazabicyclo[3.2.1]octan-8-yl)acetamido)-3,3-dimethylbutanoyl)-4-hydroxy-N—((S)-1-(4-(4-methylthiazol-5-yl)phenyl)ethyl)pyrrolidine-2-carboxamide]: in assay [2], the IC50 was less than 1000 nM. Besides, the “SMARCA2 @ 100 nM (% SMARCA2 degradation)” value in assay [3] was 35%.

Regarding `O=C(/C=C/N1C[C@H]2C[C@@H]1CN2c1ccccn1)c1ccccc1O` [PFI-3], the antiproliferative phenotype result in assay [6] is reported as “fails to display an antiproliferative phenotype”.

For `Cc1ncsc1-c1ccc([C@H](C)NC(=O)[C@@H]2C[C@@H](O)CN2C(=O)[C@@H](NC(=O)CC2CCN(c3cc(-c4cc(F)ccc4O)nnc3N)CC2)C(C)(C)C)cc1` [Compound 99], the concentration for half-maximal inhibition (IC50) in assay [1] and in assay [2] was less than 1000 nM each time. In assay [4], this molecule displayed an SMARCA4 percent degradation at 0.1 µM of 100%. Moreover, in assay [5], the “SMARCA2 Percent degradation @ 100 nM” value is listed as 99%. The “SMARCA2 @ 100 nM (% SMARCA2 degradation)” value in assay [3] worked out at 75%.

As for `Cc1ncsc1-c1ccc([C@H](C)NC(=O)[C@@H]2C[C@@H](O)CN2C(=O)[C@@H](NC(=O)CN2CCN(c3cc(-c4cc(F)ccc4O)nnc3N)CC2)C(C)(C)C)cc1` [Compound 63, (2S,4R)-1-((S)-2-(2-(4-(3-amino-6-(5-fluoro-2-hydroxyphenyl)pyridazin-4-yl)piperazin-1-yl)acetamido)-3,3-dimethylbutanoyl)-4-hydroxy-N—((S)-1-(4-(4-methylthiazol-5-yl)phenyl)ethyl)pyrrolidine-2-carboxamide], the IC50 in assay [2] was less than 1000 nM. For the same molecule, in assay [3], the “SMARCA2 @ 100 nM (% SMARCA2 degradation)” value amounted to 94%.

On to `Cc1ncsc1-c1ccc([C@H](C)NC(=O)[C@@H]2C[C@@H](O)CN2C(=O)[C@@H](NC(=O)C(C)C2CCN(c3cc(-c4cccc(F)c4O)nnc3N)CC2)C(C)(C)C)cc1` (single isomer, unassigned) [Compound 83], for which the IC50 in assay [2] is less than 1000 nM. The “SMARCA2 Percent degradation @ 100 nM” value in assay [5] is reported as 100%. The “SMARCA2 @ 100 nM (% SMARCA2 degradation)” value in assay [3] came to 7%.

As for `Cc1ncsc1-c1ccc([C@H](C)NC(=O)[C@@H]2C[C@@H](O)CN2C(=O)[C@@H](NC(=O)CN2CCN(c3cc(-c4ccccc4O)nnc3N)CC2)C(C)(C)C)cc1` [Compound 43], the IC50 in assay [1] and in assay [2] was less than 1000 nM in each case. Also, the “SMARCA4 Percent degradation @ 100 nM” value in assay [4] was 100%. In addition, the “SMARCA2 Percent degradation @ 100 nM” value in assay [5] was 100%. Moreover, the “SMARCA2 @ 100 nM (% SMARCA2 degradation)” value in assay [3] was determined as 97%.

For `Cc1ncsc1-c1ccc([C@H](C)NC(=O)[C@@H]2C[C@@H](O)CN2C(=O)[C@@H](NC(=O)C(C)N2CCN(c3cc(-c4ccccc4O)nnc3N)CC2)C(C)(C)C)cc1` (single isomer, unassigned) [Compound 58], the IC50 in assay [2] is less than 1000 nM. Further, in assay [4], the SMARCA4 percent degradation at 0.1 µM worked out at 100%. Besides, the “SMARCA2 Percent degradation @ 100 nM” value in assay [5] was found to be 100%. The “SMARCA2 @ 100 nM (% SMARCA2 degradation)” value in assay [3] was 71%.

Usually IC50 stands for the point on the concentration scale where inhibition reaches its midpoint.

The record behind these values is patent US12371426B2, “Pyridazine derivatives as SMARCA2/4 degraders” (Aurigene Discovery Technologies Limited, priority 2018, dated 2025).
